What is called IC50 is the concentration at which inhibition is half-maximal. The low end stands for inhibition by little substance, the high end for a need for much substance. The term EC50 denotes the concentration needed to bring the measured effect to its halfway point. A low value points to greater potency. What is called inhibition is the relative decrease from the control value, in per cent.

15 compounds from ChEMBL document CHEMBL1145381, “Synthesis and antiviral property of allophenylnorstatine-based HIV protease inhibitors incorporating D-cysteine derivatives as P2/P3 moieties” (Bioorg Med Chem Lett, 2007) can be followed below.

Data set [1] in a line: Cytotoxicity against MT4 cells by MTT assay. In kind it is cell-based. Particulars: human, read-out: LC50 (the source's name). On the technique in general: Formazan colour is commonly taken as a measure of viable cells.
The nature of data set [2]: Inhibition of HIV protease. Also on record: species or system Human immunodeficiency virus.
Data set [3] is described as follows: Selectivity index, Ratio of LC50 for MT4 cells to EC50 for HIV1 3B. It counts as functional.
The test system of data set [4] is Human immunodeficiency virus 1. Description: Antiviral activity against HIV1 3B in MT4 cells by MTT assay. It counts as functional, organism-based. Particulars: Human immunodeficiency virus 1, 3B.
For data set [5], the system named is Human immunodeficiency virus. Description: Inhibition of HIV protease at 1 nM.
The test system of data set [6] is Human immunodeficiency virus 1. The data set can be described thus: Antiviral activity against nelfinavir-resistant HIV1 NL432. It counts as functional, organism-based. The settings on record: Human immunodeficiency virus 1, NL432.
Data set [7] deals with Human immunodeficiency virus 1. The data set can be described thus: Antiviral activity against ritonavir and nelfinavir-resistant HIV1 NL432. In kind it is functional, organism-based. Particulars: Human immunodeficiency virus 1, NL432.
Data set [8] has as its system Human immunodeficiency virus 1. The data set can be described thus: Antiviral activity against HIV1 NL432. In kind it is functional, organism-based. The settings on record: Human immunodeficiency virus 1, NL432.
In data set [9] the test system is Human immunodeficiency virus 1. Description: Antiviral activity against ritonavir-resistant HIV1 NL432. It counts as functional, organism-based. The settings on record: Human immunodeficiency virus 1, NL432.

For `CC(=O)NC(CS(=O)(=O)c1cccc2ccccc12)C(=O)N[C@@H](Cc1ccccc1)[C@H](O)C(=O)N1CSC(C)(C)[C@H]1C(=O)NCc1ccccc1C` (stereo partly specified), the CC50 in data set [1] worked out at 16000 nM. Besides, 0.09 nM corresponded to half-maximal inhibition in data set [2] (IC50). In [3], the Selectivity index is 400. Moreover, a half-maximal effect in [4] (EC50) was put at 40 nM. The same compound came in with an inhibition in [5] of 97%.
On to `Cc1c(O)cccc1C(=O)N[C@@H](CSc1ccccc1)[C@H](O)CN1C[C@H]2CCCC[C@H]2C[C@H]1C(=O)NC(C)(C)C`, for which the EC50 in [6] came out at 308 nM; in [4], 16 nM; in data set [7] it was 67 nM; in data set [8], 25 nM; in [9], 28 nM. For the same compound, the CC50 in data set [1] is 11000 nM. Moreover, the Selectivity index in [3] is listed as 688. Besides, the inhibition in data set [5] came out at 29%.
In the case of `COc1ccc(CS(=O)(=O)C[C@@H](NC(C)=O)C(=O)N[C@@H](Cc2ccccc2)[C@H](O)C(=O)N2CSC(C)(C)[C@H]2C(=O)NCc2ccccc2C)cc1`, the CC50 in data set [1] is more than 27000 nM. In addition, the Selectivity index in [3] was more than 265. Besides, in data set [4], a half-maximal effect (EC50) was put at 102 nM. In addition, in data set [5], the inhibition came to 59%.
For `CC(C)(C)NC(=O)c1ccccc1C[C@H](O)[C@@H](Cc1ccccc1)NC(=O)[C@H](CS(=O)(=O)c1ccc(Cl)cc1)NS(C)(=O)=O`, half-maximal inhibition in data set [2] (IC50) required 0.34 nM.
Turning to `CC(C)c1nc(CN(C)C(=O)N[C@H](C(=O)N[C@@H](Cc2ccccc2)C[C@H](O)[C@H](Cc2ccccc2)NC(=O)OCc2cncs2)C(C)C)cs1` [RITONAVIR], the EC50 in data set [4] was determined as 36 nM; in data set [7], 162 nM; in data set [8] it was 80 nM; in data set [9] it was 220 nM. Also, the inhibition in [5] amounted to 90%.
Regarding `CC(=O)NC(CS(=O)(=O)c1ccc2ccccc2c1)C(=O)N[C@@H](Cc1ccccc1)[C@H](O)C(=O)N1CSC(C)(C)[C@H]1C(=O)NCc1ccccc1C` (stereo partly specified), in data set [1], the CC50 was found to be 16000 nM. Also, the IC50 in [2] is 0.086 nM. In [3], the Selectivity index is 571. This compound came in with an EC50 in data set [4] of 28 nM. Also, the inhibition in [5] was found to be 96%.
Consider `COc1ccc(CSC[C@@H](NC(C)=O)C(=O)N[C@@H](Cc2ccccc2)[C@H](O)C(=O)N2CSC(C)(C)[C@H]2C(=O)NCc2ccccc2C)cc1`, for which the EC50 came to 2.4 nM in [6]; 13 nM in data set [4]; 14 nM in data set [7]; 17 nM in data set [8]; 18 nM in [9]. The CC50 in [1] amounted to 17000 nM. Besides, it took 0.18 nM to reach half-maximal inhibition in data set [2] (IC50). Besides, the Selectivity index in data set [3] was determined as 1308. The inhibition in data set [5] stood at 87%.
As for `CC(=O)NC(CSc1ccc2ccccc2c1)C(=O)N[C@@H](Cc1ccccc1)[C@H](O)C(=O)N1CSC(C)(C)[C@H]1C(=O)NCc1ccccc1C` (stereo partly specified), the half-maximal effective concentration (EC50) worked out at 7.2 nM in data set [6]; 18 nM in data set [4]; 32 nM in data set [7]; 17 nM in data set [8]; 65 nM in [9]. For the same compound, the CC50 in [1] was 8300 nM. Also, the Selectivity index in data set [3] was determined as 461. The same compound had an inhibition in data set [5] of 53%.
In data set [2], `Cc1ccccc1CNC(=O)[C@H]1N(C(=O)[C@@H](O)[C@H](Cc2ccccc2)NC(=O)C(CS(=O)(=O)c2ccc3ccccc3c2)NS(C)(=O)=O)CSC1(C)C` (stereo partly specified) showed an IC50 of 0.09 nM. For the same compound, the inhibition in data set [5] was determined as 98%.
`Cc1ccccc1CNC(=O)[C@H]1N(C(=O)[C@@H](O)[C@H](Cc2ccccc2)NC(=O)C(CS(=O)(=O)c2cccc3ccccc23)NS(C)(=O)=O)CSC1(C)C` (stereo partly specified) came in with a 50% inhibitory concentration (IC50) in data set [2] of 0.083 nM. This compound showed an inhibition in data set [5] of 97%.
For the compound `CC(=O)NC(CSc1cccc2ccccc12)C(=O)N[C@@H](Cc1ccccc1)[C@H](O)C(=O)N1CSC(C)(C)[C@H]1C(=O)NCc1ccccc1C` (stereo partly specified), the EC50 in data set [6] is 6.3 nM; in data set [4], 13 nM; in data set [7], 52 nM; in data set [8] it was 70 nM; in data set [9] it was 18 nM. For the same compound, in [1], the CC50 amounted to 8000 nM. Further, the Selectivity index in data set [3] is listed as 471. In addition, the inhibition in data set [5] came to 68%.
On to `CSC[C@H](NC(=O)COc1cccc2cnccc12)C(=O)N[C@@H](Cc1ccccc1)[C@H](O)C(=O)N1CSC[C@H]1C(=O)NC(C)(C)C`, for which, in data set [1], the CC50 was more than 30000 nM. The Selectivity index in data set [3] is more than 1363. This compound also gave an EC50 in [4] of 22 nM. The same compound came in with an inhibition in data set [5] of 40%.
Take `Cc1cc(C)c(NC(CSc2cccc3ccccc23)C(=O)N[C@@H](Cc2ccccc2)[C@H](O)C(=O)N2CSC(C)(C)[C@H]2C(=O)NCc2ccccc2C)c(C)c1` (stereo partly specified): the EC50 in [6] was 0.67 nM; in [4], 6.4 nM; in data set [7] it was 13 nM; in data set [8] it was 9.3 nM; in [9], 17 nM. The CC50 in data set [1] turned out to be 4400 nM. The Selectivity index in data set [3] was 688. For the same compound, the inhibition in [5] was determined as 74%.
As for `COc1ccc(CS(=O)(=O)C[C@@H](Nc2c(C)cc(C)cc2C)C(=O)N[C@@H](Cc2ccccc2)[C@H](O)C(=O)N2CSC(C)(C)[C@H]2C(=O)NCc2ccccc2C)cc1`, in data set [1], the CC50 was more than 26000 nM. Also, the Selectivity index in data set [3] is more than 128. For the same compound, the EC50 in data set [4] was 203 nM. In addition, the inhibition in data set [5] was 66%.
For the compound `Cc1cc(C)c(NC(CSc2ccc3ccccc3c2)C(=O)N[C@@H](Cc2ccccc2)[C@H](O)C(=O)N2CSC(C)(C)[C@H]2C(=O)NCc2ccccc2C)c(C)c1` (stereo partly specified), the EC50 in [6] amounted to 0.8 nM; in data set [4], 13 nM; in data set [7], 23 nM; in [8], 17 nM; in [9], 31 nM. The CC50 in data set [1] was 6100 nM. Further, the Selectivity index in [3] was 469. In addition, in [5], the inhibition stood at 67%.
